What was measured:
[1] = system: subjects with acute coronary syndrome; conditions: phase III trial; cited from earlier work
Balb/c mice = experiment: Skin safety of daily topical cream on shaved backs of mice; type: in vivo
Text: Wild type Balb/c mice of 6-8 weeks of age were used to determine the safety and efficacy of application of a cream containing an inhibitor of the Erk pathway. Animal studies were approved by the Albany Medical Center Institutional Review Board. The fur of the back was removed with an application of Nair. Three days later, three marks were made on the backs of the mice and treated with a cream containing trametinib (an Erk pathway inhibitor), vehicle cream (without an active ingredient) or nothing daily for five days. One hour after the last application, the spots were treated with one cream or the other, and cutaneous inflammation was induced via exposure to 1-Fluoro-2,4-dinitrobenzene (hereafter DNFB). Six hours later mice were euthanized and the skin spots were processed for histological analysis.
More specifically, to determine whether a cream containing an inhibitor of the Erk activation pathway would effectively penetrate the skin and protect it from an external injury, four mice were treated once a day for five consecutive days on a shaved back with a cream containing 0.1 mg/ml trametinib and cream without drug as described in FIG. 4. Regions labeled ‘U’ were left untreated and represent the baseline normal skin. […] Regions labeled ‘T’ were treated with a cream containing trametinib as the active ingredient. […]

SMILES | Efficacy in reducing the incidence of cardiovascular events [1] | Safety profile in trial [1] | Skin changes after application of cream (photographs) (Balb/c mice; cream containing 0.1 mg/ml trametinib, topical, once a day for five days, shaved back) | Acute adverse effect in the skin (Balb/c mice; topical cream containing trametinib, five days)
Cc1c(F)cc(C(=O)NC2CC2)cc1-c1ccc(C(=O)NCC(C)(C)C)cn1 [Losmapimod] | did not demonstrate efficacy | good safety profile | – | –
CC(=O)Nc1cccc(-n2c(=O)n(C3CC3)c(=O)c3c(Nc4ccc(I)cc4F)n(C)c(=O)c(C)c32)c1 [trametinib, Trametinib] | – | – | No skin changes | does not elicit an acute adverse effect

Reference: US11065252B2, “Treatment of rosacea with P38 and Erk kinase pathway inhibitors” (Albany Medical College, priority 2016, dated 2021)
